According to patent US20030092692A1, “Cytoprotective steroids (II)” (priority 2000, published 2003):

Assays:
NMDA receptors = settings: cited from earlier work
Rat cortical neurons = test: Glutamate induced neuronal cell death of primary cortical cultures (LDH release); assay type: cell-based, Wistar rat; settings: for effect on normal cell death: without glutamate
Experimental: Rat cortical neurons were cultured by modification of the methods of Dichter (1973) Brain Res 149, p279-293 and Durkin et al (1996) J. Neurochem 66, p951-962. A female Wistar rat (Janvier, Le Genest-St-Isle, France: ref RJ WAF151) of 17 days gestation was killed by cervical disclocation, the foetuses removed on embryonoic day 17 and brains removed and placed in ice-cold calcium/magnesium free Hanks balanced salt solution (HBSS: Gibco Life Technologies, Cergy-Pontoise, France: ref 14170-088 batch 302790). Each cortex was dissected and meninges were carefully removed.
The cortical neurons were dissociated by trypsinization for 5 minutes at 37° C. (trypsin: 0.5 mg/ml: Difco, LPCR, Strasbourg: ref 0152-14 batch 128856JC) and the reaction stopped by addition of HBSS containing calcium and magnesium (HBSS+ Gibco ref 24020-091; batch 3010598) with 10% of fetal bovine serum FBS; Gibco; ref 1027-098; batch 40Q1681K and 1 mg/ml DNase I (Boehringer Mannheim, Meylan, France; ref 1284938; batch 14880300).
The suspension was triturated with a 10 ml pipette (stripette Costar, Dutscher, Brumath, France) and was added in a centrifuge tube (Tube 50 ml Corning, Dutscher) containing 20 ml HBSS^− with 3.5% of BSA (Sigma, L'Isle D'Abeau Chesnes, ref. A6003, batch 29H7606) and centrifuged at low speed (150×g) for 10 min (apparatus Sigma 2-15, Bioblock, Illkirch, France).
The cells were resuspended in Dulbecco's Modified Eagle Medium (DMEM; Gibco; ref. 41965-039; batch 3032129), containing 20% FBS. Viable cells were quantified and plated at 35,000/well in 96 well plates (Nunclon, Gibco) previously coated with poly-L-lysine (0.01 mg/ml, France; ref. P5899; batch 28H8504). Cells were allowed to adhere 2 h and maintained in a humidified incubator at 37° C. in 5% CO2-95% air atmosphere.
Culture medium was then changed to a medium consisting of DMEM, 10% heat-inactivated FBS, 10% heat-inactived horse serum (Gibco, ref. 16505-080; batch 3030347) and 1% L-Glutamine (Gibco, ref. 25030-024; batch 3031499).
Since the cultures were mixed populations containing both neurons and glial cells, to minimize glial growth, the cultures were treated for 2 days with 15 μg/ml of 5-fluoro-2′-deoxyuridine (Sigma; ref. F8791; batch 97H4048) and 35 μg/ml of uridine (Sigma, ref. U3003; batch 18H11965) on day 4 of culture.
Following exposure to mitotic inhibitors, one-half of the medium was removed and replaced with growth medium consisting of 89% DMEM, 10% horse serum and 1% L-glutamine.
Glutamate toxicity experiments were performed after 13 days in culture (Glutamic acid; Sigma, ref. G6904; batch 18H11381).
On day 12, twenty-four hours before glutamate exposure, cultures were washed with DMEM and placed in medium DMEM/Ham12 with supplements but without estradiol.
The reference compounds, estradiol (Sigma, ref. E8875; batch 98H40953) and DHEA (Sigma, ref. D4000; batch 97H0301), and test compound were added at concentrations of 2, 10, 50 and 100 nM. Human FGF-basic (Tebu, Le Perray-en-Yvelines, France; ref. 100-18B; batch 107R0806 E118) was included as an additional reference and was tested at 5, 10 and 20 ng/ml. All compounds were dissolved at 10 mM in ethanol 100% (LPCR, ref. 20821467; batch J109), diluted 10,000 fold in DMEM and stocked at −20° C.
The effect of the test molecule on survival of cultured neurones was investigated alone and in intoxication conditions. The effect of the ethanol was also tested at the highest concentration used for dilution of the test molecules (100 nM=0.001% ethanol).
On day 13, cultures were exposed to glutamate 0.50, 100, 150, 200, 250, 300, 400 and 500 μM for 10 min at 37° C. in DMEM/hamF12 with supplement. The effects of the 2 reference compounds and the test compound was investigated in the presence of glutamate.
After the incubation period, the cultures were washed with DMEM and placed in DMEM/Ham12 with supplement either in the absence or presence of the compound to evaluate their post intoxication effects. […]

[1] = tested on: CA1 pyramidal cell layer of organotypic hippocampal slice cultures; test: Hypoxic challenge of organotypic hippocampal slice cultures (PI fluorescence); assay type: cell-based, Wistar rat; settings: 180 min hypoxia, 24 h recovery, hypoxia control 27.6±3.7%
Experimental: Organotypic hippocampal slice cultures were prepared using the basic method of Pringle et al (1997) modified as follows:
Wistar rat pups (8-11 days old) were decapitated and the hippocampus rapidly dissected into ice-cold Goy's balanced salt solution supplemented with 4.5 mg/ml glucose. Slices were separated and plated into Millicell CM culture inserts (4 per well) and maintained at 37° C./5% CO2 for 14 days. Maintenance medium consisted of 25% heat-inactivated horse serum, 25% Hank's balanced salt solution (HBSS) and 50% minimum essential medium with added Earle's salts (MEM) supplemented with 1 mM glutamine and 4.5 mg/ml glucose.
Experimental hypoxia was performed as described previously (Pringle et al., (1996) Stroke 27, p2124-2130, (1997) Brain Research 755-46). Briefly, cultures were transferred to serum free medium (SFM—75% MEM, 25% HBSS supplemented with 1 mM glutamine and 4.5 mg/ml glucose) containing 5 μg/ml of the fluorescent exclusion dye propidium iodide (PI). Cultures were allowed to equilibrate in SFM for 60 minutes prior to imaging. PI fluorescence was detected using a standard Leica inverted microscope fitted with a rhodamine filter set (Leica N2). Any cultures in which PI fluorescence was detected at this stage were excluded from further study. Hypoxia was induced by transferring cultures to SFM (+PI) which had been saturated with 95% N2/5% CO2. Culture plates (without lids) were then sealed into an airtight chamber in which the atmosphere was saturated with 95% N2/5% CO2 by continuously blowing through gas at 1000 ml/min for ten minutes before being sealed and placed in the incubator for 170 mins (total time of hypoxia was therefore 180 mins). At the end of the hypoxia period cultures were returned to normoxic SFM containing PI and placed back in the incubator for 24 hours.
Neuronal damage was assessed as described previously (Pringle et al., 1996, 1997) using NIH Image 1.60 running on an Apple IIsi computer. Images were captured using a COHU monochrome camera and saved onto optical disk for offline analysis using NIH image. Light transmission images were captured prior to the addition of drugs, and PI fluorescence images recorded at the end of the 24 hour post-hypoxia recovery period. The areas of the CA1, CA3 and dentate gyrus (DG) cell layers were determined from the transmission image. The area of PI fluorescence in each of the cell layers was measured using the density slice function within NIH Image, and neuronal damage expressed as the percentage of the regional area in which PI fluorescence was detected above background.
Steroid compounds were prepared by making an initial 1 mg/ml solution in ethanol and further diluting down in SFM. Compounds were included in the cultures for 45 minutes prior to hypoxia, during the hypoxic episode and during the post-hypoxic recovery period. Control experiments consisted of cultures treated with vehicle alone.

estrogenic activity = settings: cited from earlier work

In the case of 3α-hydroxy-5β-pregnan-20-one sulphate, the “decrease of NMDA response” value (NMDA receptors) is given as 76%.

With `C[C@]12CC[C@H](O)CC1=CC[C@@H]1[C@@H]2CC[C@]2(C)C(=O)CC[C@@H]12` [DHEA] the “effect on normal cell death” value (Rat cortical neurons; 10 nM) was “protect significantly”, the “effect on normal cell death” value (Rat cortical neurons; 50 nM) was “protect significantly” and the “protection of cortical neurones from glutamate neurotoxicity” value (Rat cortical neurons; doses of 0, 50 and 100 nM, glutamate 200 μM) was “failing to protect”.

In the case of `CC(=O)[C@H]1CC[C@H]2[C@@H]3[C@H](O)C=C4C[C@@H](O)CC[C@]4(C)[C@H]3CC[C@]12C` [7α-hydroxy-pregnenolone], the “neuronal damage: PI fluorescence as % of CA1” value (from here on “neuronal damage … as % of CA1”) ([1]; 100 nM) is reported as 11.6±4.0% and the “less cell death in presence of glutamate” value (Rat cortical neurons; 10 nM, glutamate 200 μM) is reported as “up to 10%”.

With `C[C@]12CC[C@H](O)CC1=C[C@@H](O)[C@@H]1[C@@H]2CC[C@]2(C)C(=O)CC[C@@H]12` [7α-hydroxy-DHEA] the “neuronal damage … as % of CA1” value ([1]; 10 nM) was 1.1±0.9%, the “neuronal death in CA1” value ([1]; concentration not given) was 4.3±1.3% and the “effect on normal cell death” value (Rat cortical neurons; 10 nM) was “significantly decreased normal cell death”.

In the case of `CC12CCC3c4ccc(O)cc4CC(=O)C3C1CCC2O` (stereo not shown) [7-keto-estradiol], the “estrogenic activity as fraction of that of estrone” value (estrogenic activity) is given as 1/300.

With `C[C@]12CC[C@@H]3c4ccc(O)cc4C[C@@H](O)[C@H]3[C@@H]1CC[C@@H]2O` [7α-hydroxy-estradiol, Estra-1,3,5(10)-triene 3,7α,17β-triol] the “neuronal damage … as % of CA1” value ([1]; 1 nM) was 21.5±11.3%, the “neuronal damage … as % of CA1” value ([1]; 10 nM) was 13.0±4.7% and the “neuronal damage … as % of CA1” value ([1]; 100 nM) was 5.9±2.1%. The “estrogenic activity as fraction of that of estrone” value (estrogenic activity) was 1/300.

For `C[C@]12CC[C@@H]3c4ccc(O)cc4CC[C@H]3[C@@H]1CC[C@@H]2O` [estradiol], the “effect on cell death in glutamate toxicity assay (FIG. 3)” value (Rat cortical neurons; primary cortical neurones) was “no effect”.

For `CC(=O)[C@H]1CC[C@H]2[C@@H]3C(=O)C=C4C[C@@H](OS(=O)(=O)O)CC[C@]4(C)[C@H]3CC[C@]12C` [7-keto-pregnenolone sulphate], the “decrease of NMDA response” value (NMDA receptors) is listed as 12%.
